What all share (test): NCI anticancer screen, dose series, 48 h
The subject of assay [1] is EKVX.
Assay [2] relates to SF-268.
Assay [3] relates to MDA-MB-435.
Assay [4] concerns CAKI-1.
The test system of assay [5] is 786-0.
Assay [6] relates to A498.
Assay [7] relates to K562.
Assay [8] has as its system Malme-3M.
Assay [9] concerns A549.
Assay [10] deals with COLO 205.
For assay [11], the system named is SK-OV-3.
Assay [12] deals with SN12C.
Assay [13] has as its system SK-MEL-28.
Assay [14] relates to OVCAR-8.
The test system of assay [15] is SNB-19.
Assay [16] deals with NCI-H460.
Assay [17] concerns MCF7.
For assay [18], the system named is CCRF-CEM.
In assay [19] the test system is HL-60.
In assay [20] the test system is DU-145.

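A five-concentration, 48-hour dose response in 96-well plates underlies each endpoint, interpolated linearly between surrounding concentrations. GI50 marks 50% less growth.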 Calls of active or inactive are those of the source. No stated cut-off is given here; in the data, active = GI50 up to about 1.1 µM and inactive = higher.

Consider `COc1ccc(Cc2c(N)[nH]c(=O)[nH]c2=O)cc1`, for which the GI50 in assay [1], in assay [2], in assay [3], in [4], in assay [5] and in [6] was > 100 µM (inactive) in each case. The GI50 in [7], in assay [8], in assay [9], in assay [10], in assay [11] and in assay [12] was > 100 µM (inactive) throughout. Also, the GI50 in assay [13], in [14], in assay [15] and in [16] was > 100 µM (inactive) each time.
For the compound `CC(=O)CC(=O)c1cc2c(=O)oc(C)cc2oc1=O`, the GI50 in assay [1], in assay [17], in assay [2], in assay [4], in assay [18] and in assay [19] was > 37.5 µM (inactive) in each case. Further, the GI50 in [5], in assay [7], in [8], in assay [9], in [10] and in assay [11] was > 37.5 µM (inactive) each time. Also, the GI50 in [12], in assay [13], in assay [14], in [15], in [20] and in [16] was > 37.5 µM (inactive) throughout.
Turning to `O=C(N/C(=C\c1cc(Cl)ccc1Cl)c1nc2cc(Cl)ccc2[nH]1)c1ccccc1`, the GI50 in assay [1] was 23 µM (inactive); in assay [2], 13.8 µM (inactive); in assay [4], 22 µM (inactive); in [18], 17 µM (inactive); in [19], 14.3 µM (inactive); in [5] it was 24.8 µM (inactive). The GI50 was 21.4 µM (inactive) in [6]; 15.5 µM (inactive) in assay [7]; 18.9 µM (inactive) in assay [8]; 16.8 µM (inactive) in assay [9]; 18.8 µM (inactive) in [10]; 21.5 µM (inactive) in [11]. In addition, the GI50 in assay [12] was 19.5 µM (inactive); in assay [13], 17.4 µM (inactive); in assay [14] it was 16.1 µM (inactive); in assay [15] it was 22.4 µM (inactive); in [16], 15.1 µM (inactive).
Regarding `COc1cc2c(cc1OCc1ccccc1)CNCC2`, the GI50 in assay [1] was > 100 µM (inactive); in assay [2] it was > 100 µM (inactive); in assay [4], > 100 µM (inactive); in assay [18], > 100 µM (inactive); in assay [19], 70.3 µM (inactive); in assay [5], > 100 µM (inactive). Further, the GI50 in assay [6], in assay [7], in assay [8], in assay [9], in assay [10] and in assay [11] was > 100 µM (inactive) each time. Besides, the GI50 in assay [12], in assay [13], in [14], in [15] and in [16] was > 100 µM (inactive) each time.
As for `O=C(O)C1=Cc2cccc3cccc(c23)C1=O`, the GI50 in assay [1], in [2], in [4], in assay [18], in [19] and in assay [5] was > 100 µM (inactive) in each case. Further, the GI50 is 24.3 µM (inactive) in assay [6]; > 100 µM (inactive) in [7]; > 100 µM (inactive) in assay [8]; > 100 µM (inactive) in assay [9]; > 100 µM (inactive) in [10]; > 100 µM (inactive) in assay [11]. The GI50 in [12], in assay [13], in assay [14], in assay [15] and in assay [16] was > 100 µM (inactive) throughout.
Turning to `CCOC(=O)c1c(N)sc2c1C(C(=O)OCC)CCC2` (centres undefined), the GI50 in assay [1] is 55.8 µM (inactive); in [17] it was > 100 µM (inactive); in [18], > 100 µM (inactive); in [19], 53.3 µM (inactive); in assay [5], > 100 µM (inactive); in assay [6], 12.1 µM (inactive). The GI50 in assay [7] is 76.6 µM (inactive); in assay [8] it was > 100 µM (inactive); in [9], > 100 µM (inactive); in assay [10], > 100 µM (inactive); in assay [12] it was > 100 µM (inactive); in [13] it was > 100 µM (inactive). For the same compound, the GI50 in [14], in assay [15] and in assay [16] was > 100 µM (inactive) each time.
Turning to `COC(=O)[C@@]12OC[C@]34C([C@@H](O)C1O)[C@@]1(C)CC(=O)C(OC(=O)CC(C)C(F)(F)F)=C(C)C1C[C@H]3OC(=O)[C@H](O)[C@H]42` (some centres undefined), the GI50 in assay [1] is 26.5 µM (inactive); in assay [2], 6.85 µM (inactive); in [4] it was 9.4 µM (inactive); in [18], 4.03 µM (inactive); in assay [19], 0.268 µM (active); in [5], 1.92 µM (inactive). The GI50 is 0.156 µM (active) in assay [6]; 6.05 µM (inactive) in [7]; 0.215 µM (active) in assay [8]; 17.3 µM (inactive) in assay [9]; 6.81 µM (inactive) in [10]; 5.24 µM (inactive) in assay [11]. Moreover, the GI50 in [12] is 2 µM (inactive); in assay [13] it was 1.53 µM (inactive); in assay [14] it was 4.71 µM (inactive); in assay [15], 0.809 µM (active); in assay [16], 1.77 µM (inactive).
Regarding `COc1ccc(C(=CCC(C)C2CCC3[C@@H]4C(OC(C)=O)CC5CC(OC(C)=O)CC[C@]5(C)C4CC(OC(C)=O)[C@]23C)c2ccc(OC)cc2)cc1` (some centres undefined), the GI50 in assay [1] is > 100 µM (inactive); in assay [17], 20.3 µM (inactive); in assay [2], > 100 µM (inactive); in assay [3], 77.1 µM (inactive); in assay [18] it was 27.1 µM (inactive); in [19] it was 8.02 µM (inactive). Further, the GI50 is > 100 µM (inactive) in assay [5]; 67.8 µM (inactive) in [7]; > 100 µM (inactive) in assay [9]; > 100 µM (inactive) in [10]; > 100 µM (inactive) in [11]; > 100 µM (inactive) in assay [12]. Also, the GI50 in assay [13] was 83.8 µM (inactive); in assay [14] it was > 100 µM (inactive); in assay [15], > 100 µM (inactive); in assay [16] it was 55.2 µM (inactive).
Take `N=c1c2ccccc2nc2oc3ccc(Cl)cc3n12`: the GI50 in [1] is 15.6 µM (inactive); in [2], 34.2 µM (inactive); in assay [3] it was 71.3 µM (inactive); in [4] it was 11.9 µM (inactive); in assay [18], 43.9 µM (inactive); in [5], 3.94 µM (inactive). Further, the GI50 in [7] is 9.2 µM (inactive); in assay [8], 10.8 µM (inactive); in assay [9], 12.9 µM (inactive); in assay [10], 29.4 µM (inactive); in assay [11], 13.1 µM (inactive); in assay [12], 9.46 µM (inactive). Further, the GI50 is 25.2 µM (inactive) in assay [13], 9.66 µM (inactive) in assay [14], 8.22 µM (inactive) in assay [15] and 25.8 µM (inactive) in assay [16].

For the origin of these results see ChEMBL document CHEMBL1201862, “PubChem BioAssay data set” (2004).
